Reference: patent US20170121402A1, “ORAL COMPOSITION OF ANTI-TNF ALPHA ANTIBODIES” (Laboratoire Français du Fractionnement et des …, priority 2014, published 2017)

System: interleukin-8 (IL-8) secretion by Caco-2 cells
Assay: Anti-inflammatory effect on the Caco-2 line: IL-8 secretion after IL-1 beta activation, ELISA
Format: cell-based, human
Settings: differentiated Caco-2 cells (14 days), 24 h preculture with test agent, then 1 ng/ml IL-1 beta for 12 hours
Description: Caco-2 cells, a colon cancer cell line, are an established cell model of the human intestinal epithelium (Pinto et al., 1983, Biol. Cell, 47, 323-330). These cells secrete interleukin-8 (IL-8), which is one of the major interleukins in the pathogenesis of inflammatory bowel diseases, after activation by interleukin-1 beta (IL-1 beta).
The inventors used the Caco-2 cell line as a model of epithelial cells, and evaluated the effect of compositions according to the invention on interleukin-8 (IL-8) secretion by these cells after activation by interleukin-1 beta (IL-1 beta).
To that end, Caco-2 cells, deposited in 24well plates, were cultured for 14 days until the cells were confluent and in a stable differentiation state. On day 14, the cells were precultured in the presence of caprylic acid, transgenically-produced anti-TNF antibody (adalimumab), and a combination of the two. Twenty-four hours later, the cells were stimulated with 1 ng/ml IL-1 beta for 12 hours. IL-8 levels present in the culture supernatants were measured by ELISA.

**Q.** Which “IL-8 levels present in the culture supernatants (IL-8 secretion)” value does the source give for adalimumab [anti-TNF antibody] here?
**A.** induces a decrease in IL-8 levels
